US11642548B2, “Sterilization method and sterilization apparatus” (Ushio Denki Kabushiki Kaisha, priority 2017, dated 2023)

Experiments:
[1] = Test Example 3: odor of amino acid aqueous solutions before and after irradiation of ultraviolet at a peak wavelength of 222 nm (sensory evaluation); format: physicochemical; conditions: for Comparison with smells in Test example 1: odor after 222 nm UV irradiation of the solution compared with odor of UV-irradiated human hand, sensory evaluation by six assessors; for Odor before irradiation: 3 mL aqueous solution of amino acid in petri dish, before ultraviolet irradiation
Method: Looking at amino acids that form the proteins in the epidermis, then changes in the odor before and after irradiation of ultraviolet at a peak wavelength of 222 nm with respect to the following eighteen types of amino acids are examined More specifically, a 3 mL aqueous solution of each type of amino acid was put in a φ40 petri dish, and using the same light source as that of the ultraviolet irradiation apparatus 1, irradiated with ultraviolet with an irradiance of 3.8 mW/cm^2 for an irradiation period of 30 seconds. The petri dish and the light source were spaced apart by 8 cm. The eighteen types of amino acids were: Cystine, glutamic acid, leucine, arginine, serine, threonine, aspartic acid, proline, glycine, valine, alanine, phenylalanine, isoleucine, tyrosine, lysine, histidine, methionine, and tryptophan. These eighteen amino acids are all known as the substances that form proteins contained in the epidermis.
The comparison with the odor in Test Example 1 was made by sensory evaluation performed by the six assessors M1, M2, M3, M4, M5, and M6.

[2] = system: region irradiated with ultraviolet (palm of the right hand); experiment: Test Example 4: application of amino acid aqueous solution to palm irradiated with 222 nm ultraviolet, assessment of change in smell; format: in vivo, human; conditions: 1 mM aqueous solution sprayed and rubbed in on palm irradiated with 222 nm UV, 3.8 mW/cm^2, 30 seconds, smell of burning hair before application, Assessor M1, other five gave the same results
From the text: Similarly to the method of Test Example 1, using the ultraviolet irradiation apparatus 1 shown in FIG. 1, the palm of the right hand of each of six assessors M1, M2, M3, M4, M5, and M6 was irradiated with ultraviolet, with a peak wavelength at 222 nm and an irradiance of 3.8 mW/cm^2 for an irradiation period of 30 seconds.
After that, each aqueous solution of the eighteen types of amino acids used in Test Example 3 (cystine, glutamic acid, leucine, arginine, serine, threonine, aspartic acid, proline, glycine, valine, alanine, phenylalanine, isoleucine, tyrosine, lysine, histidine, methionine, and tryptophan) was applied to the region irradiated with ultraviolet (molar concentration: 1 mM). More specifically, each aqueous solution was sprayed and rubbed in with the palm of the hand. This was followed by an assessment of any changes in the smell before and after application of each aqueous solution.

Row | SMILES | Comparison with smells in Test example 1 [1] | Odor before irradiation [1] | Smell after application of amino acid solution [2] | further results
1 | C[C@H](N)C(=O)O [Alanine, alanine] | Different | – | – | –
2 | CSCC[C@H](N)C(=O)O [Methionine, methionine] | substantially the same | – | Smell disappeared | Smell after application of amino acid solution ([2]; listed as methionine): no odor was detected
3 | N[C@@H](CCC(=O)O)C(=O)O [Glutamic acid, glutamic acid] | Different | Slight smell | Smell disappeared | Smell after application of amino acid solution ([2]; listed as glutamic acid): no odor was detected
4 | N=C(N)NCCC[C@H](N)C(=O)O [Arginine, arginine] | Different | – | Smell disappeared | Smell after application of amino acid solution ([2]; listed as arginine): no odor was detected
5 | N[C@@H](CC(=O)O)C(=O)O [Aspartic acid, aspartic acid] | Different | No smell | Smell disappeared | Smell after application of amino acid solution ([2]; listed as aspartic acid): no odor was detected
6 | CC(C)C[C@H](N)C(=O)O [Leucine, leucine] | substantially the same | – | Smell disappeared | Smell after application of amino acid solution ([2]; listed as leucine): no odor was detected
7 | N[C@@H](CSSC[C@H](N)C(=O)O)C(=O)O [Cystine] | Different | No smell | – | –
8 | CC[C@H](C)[C@H](N)C(=O)O [Isoleucine, isoleucine] | substantially the same | – | Smell disappeared | Smell after application of amino acid solution ([2]; listed as isoleucine): no odor was detected
9 | NCCCC[C@H](N)C(=O)O [Lysine, lysine] | Different | – | – | –
10 | NCC(=O)O [Glycine, glycine] | Different | No smell | Smell disappeared | Smell after application of amino acid solution ([2]; listed as glycine): no odor was detected
11 | N[C@@H](Cc1c[nH]cn1)C(=O)O [Histidine, histidine] | Different | No smell | – | –

Second part, led by results:

Row | Comparison with smells in Test example 1 [1] | Odor before irradiation [1] | SMILES | Smell after application of amino acid solution [2] | further results
12 | Different | No smell | N[C@@H](CO)C(=O)O [Serine, serine] | Smell disappeared | Smell after application of amino acid solution ([2]; listed as serine): no odor was detected
13 | Different | No smell | O=C(O)[C@@H]1CCCN1 [Proline, proline] | Smell disappeared | Odor after irradiation ([1]; 3 mL aqueous solution in petri dish, UV peak 222 nm, 3.8 mW/cm^2, 30 seconds, 8 cm from light source): Smell like lysine; Smell after application of amino acid solution ([2]; listed as proline): no odor was detected
14 | Different | No smell | N[C@@H](Cc1ccc(O)cc1)C(=O)O [Tyrosine, tyrosine] | – | –
15 | Different | – | N[C@@H](Cc1ccccc1)C(=O)O [Phenylalanine, phenylalanine] | – | –
16 | Different | No smell | C[C@@H](O)[C@H](N)C(=O)O [Threonine, threonine] | – | –
17 | substantially the same | – | CC(C)[C@H](N)C(=O)O [Valine, valine] | Smell disappeared | Smell after application of amino acid solution ([2]; listed as valine): no odor was detected
